Assay results reported in patent publication US9353155B2, “Cell-penetrating peptides” (Universite Pierre et Marie Curie (Paris 6), priority 2011, dated 2016).
No end group written: not given here.

How the values were obtained:
[1] = format: in vitro ADME, human
Procedure: The ratio of intensity of each pick is represented, relative to its own control. The R residue was mutated to K (Mut1-DPT-C9h), N (Mut2-DPT-C9h) or A (Mut3-DPT-C9h). Round: control DPT-C9h peptide (SEQ ID NO:6), Square: Mut1-DPT-C9h, Triangle: Mut2-DPT-C9h, Diamond: Mut3-DPT-C9h.
Analysis Peptide Stability in Human Serum
Analysis of peptides degradation was done by Proteominer and Maldi-Tof as previously described.

human cell lines = conditions: cited from earlier work
[2] = tested on: tumoral B cells isolated from chronic lymphocyte leukemia patients; conditions: cited from earlier work
[3] = tested on: human breast cancer xenograft; conditions: injected in mice bearing human breast cancer xenograft; cited from earlier work

degradation upon contact with human serum [1] | Substance | induction of apoptosis (human cell lines) | effect on healthy cells [2] | apoptotic effect ([2]; tumoral B cells isolated from chronic lymphocyte leukemia patients) | size of tumor [3]
not degraded | VKKKKIKAEIKIYVETLDDIFEQWAHSEDL [Mut3-DPT-C9h, VKKKKIKAEIKI-YVETLDDIFEQWAHSEDL] | – | – | – | –
– | VKKKKIKREIKI-YVETLDDIFEQWAHSEDL (VKKKKIKREIKIYVETLDDIFEQWAHSEDL; cell penetrating peptide) [DPT-C9h, control] | induces apoptosis | without effect | specific apoptotic effect | important reduction
